Source: US20240252488A1 (KOREA RESEARCH INSTITUTE OF CHEMICAL TECHNOLOGY, priority 2020, published 2024)

Experiments:
[1] = system: FADD−/− Jurkat cells; experiment: Necroptosis inhibition assay, TNF-α-induced necroptosis (CellTiter-Glo 2.0); format: cell-based, human; settings: TNF-α 15 ng/mL; for Necroptosis inhibition assay (Rescue %) 1 μM: compound 1 μM; for Necroptosis inhibition assay (Rescue %) 10 μM: compound 10 μM
Outline: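 Cmpd 0.1/1/10 μM final, 30 min RT preincubation; TNF-α 15 ng/mL final; 20–24 h, 37° C, 5% CO2. Readout: ATP luminescence (reagent 1:3 in PBS), 0.5 s/well. Cytotoxicity and % necroptosis inhibition calculated from signal.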

[2] = target: T1, MLKL (Homo sapiens, UniProt Q8NB16); experiment: Measurement of binding affinity with MLKL receptor (competitive binding assay, Kd); set-up: made in house; host or cells: HEK 293 cell line (T7 phage in E. coli BL21-derived host is also described)
T1 sequence (Q8NB16 1-471): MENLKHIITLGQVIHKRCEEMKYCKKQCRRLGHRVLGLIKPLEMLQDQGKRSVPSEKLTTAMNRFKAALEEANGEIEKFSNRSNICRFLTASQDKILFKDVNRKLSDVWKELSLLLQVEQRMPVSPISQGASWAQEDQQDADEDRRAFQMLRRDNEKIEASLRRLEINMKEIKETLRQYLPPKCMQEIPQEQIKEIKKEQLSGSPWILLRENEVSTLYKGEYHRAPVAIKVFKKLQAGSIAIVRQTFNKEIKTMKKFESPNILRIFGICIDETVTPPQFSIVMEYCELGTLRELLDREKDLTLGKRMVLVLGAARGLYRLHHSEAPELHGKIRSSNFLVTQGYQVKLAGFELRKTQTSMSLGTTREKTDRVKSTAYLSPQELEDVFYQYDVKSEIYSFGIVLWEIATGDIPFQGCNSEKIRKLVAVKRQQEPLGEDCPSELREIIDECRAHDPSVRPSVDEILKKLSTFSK
Outline: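 Kd comes from a bead-based competition format: compound-dependent loss of DNA-tagged, HEK 293-expressed MLKL capture, measured as eluate kinase by qPCR. Final DMSO is 0.9%.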

[3] = target: T1, MLKL; experiment: MLKL degradation assay in HepG2 cell line (western blot); format: cell-based; set-up: endogenous in cells; host or cells: HepG2 or HaCaT; settings: cell line not given; for Degradation assay (Degradation %) 1 μM: compound 1 μM; for Degradation assay (Degradation %) 10 μM: compound 10 μM
Outline: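 HepG2, cpd final 1 or 10 μM, 20-24 h, 37 °C/5% CO2; RIPA lysis, BCA-normalized, 10-15 μg/lane SDS-PAGE, western blot, ECL read-out.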

Row | SMILES | Kd [2] [nM] | Degradation assay (Degradation %) 1 μM [3] [%] | Degradation assay (Degradation %) 10 μM [3] [%] | Necroptosis inhibition assay (Rescue %) 1 μM ([1]; FADD−/− Jurkat cells) [%] | Necroptosis inhibition assay (Rescue %) 10 μM ([1]; FADD−/− Jurkat cells) [%] | Necroptosis inhibition assay (Rescue %) 1 μM [1] [%] | Necroptosis inhibition assay (Rescue %) 10 μM [1] [%]
1 | Nc1ncc(-c2cnn(C3CCN(CCOCCOCCNC(=O)C4CCN(c5ccc6c(c5)C(=O)N(C5CCC(=O)NC5=O)C6=O)CC4)CC3)c2)nc1C(=O)O[C@@H](C(=O)Nc1ccc(F)cc1)c1ccccc1 (stereo partly drawn) [TDH-111, (R)-2-((4-fluorophenyl)amino)-2-oxo-1-phenylethyl 3-amino-6-(1-(1-(2-(2-(2-(1-(2-(2,6-dioxopiperidin-3-yl)-1,3-dioxoisoindolin-5-yl)piperidine-4-carboxamido)ethoxy)ethoxy)ethyl)piperidin-4-yl)-1H-pyrazol-4-yl)pyrazine-2-carboxylate] | 5.3 | 4.54 | 28.85 |  |  | 45.17 | 78.08
2 | Nc1ncc(-c2cnn(C3CN(CC4CCN(C(=O)COc5cccc6c5C(=O)N(C5CCC(=O)NC5=O)C6=O)CC4)C3)c2)nc1C(=O)OC(C(=O)Nc1ccc(F)cc1)c1ccccc1 (stereo not drawn) [TDH-298, 2-((4-fluorophenyl)amino)-2-oxo-1-phenylethyl 3-amino-6-(1-(1-((1-(2-((2-(2,6-dioxopiperidin-3-yl)-1,3-dioxoisoindolin-4-yl)oxy)acetyl)piperidin-4-yl)methyl)azetidin-3-yl)-1H-pyrazol-4-yl)pyrazine-2-carboxylate] | 9.8 | 45.8 | 78.83 |  |  | 41.64 | 66.6

Second part, led by results:

Row | Kd [2] [nM] | Degradation assay (Degradation %) 1 μM [3] [%] | Degradation assay (Degradation %) 10 μM [3] [%] | SMILES | Necroptosis inhibition assay (Rescue %) 1 μM ([1]; FADD−/− Jurkat cells) [%] | Necroptosis inhibition assay (Rescue %) 10 μM ([1]; FADD−/− Jurkat cells) [%] | Necroptosis inhibition assay (Rescue %) 1 μM [1] [%] | Necroptosis inhibition assay (Rescue %) 10 μM [1] [%]
3 | 0.78 | 76.18 | 73.70 | Nc1ncc(-c2cnn(C3CCN(CCC4CCN(C5CC6(CCN(C(=O)Cc7cccc(NC8=CC(=O)N(C9CCC(=O)NC9=O)C8=O)c7)CC6)C5)CC4)CC3)c2)nc1C(=O)O[C@@H](C(=O)Nc1ccc(F)cc1)c1ccccc1 (stereo partly drawn) [TDH-509, (R)-2-((4-fluorophenyl)amino)-2-oxo-1-phenylethyl 3-amino-6-(1-(1-(2-(1-(7-(2-(3-((1-(2,6-dioxopiperidin-3-yl)-2,5-dioxo-2,5-dihydro-1H-pyrrol-3-yl)amino)phenyl)acetyl)-7-azaspiro[3.5]nonan-2-yl)piperidin-4-yl)ethyl)piperidin-4-yl)-1H-pyrazol-4-yl)pyrazine-2-carboxylate] | 19.06 | 5.55 |  | 
4 | 150 | 27.67 |  | Nc1ncc(-c2cnn(C3CCN(CC4CCN(C(=O)COc5ccc6c(c5)C(=O)N(C5CCC(=O)NC5=O)C6=O)CC4)CC3)c2)nc1C(=O)N[C@@H](C(=O)Nc1ccc(F)cc1)c1ccccc1 (stereo partly drawn) [TDH-187, 3-amino-6-(1-(1-((1-(2-((2-(2,6-dioxopiperidin-3-yl)-1,3-dioxoisoindolin-5-yl)oxy)acetyl)piperidin-4-yl)methyl)piperidin-4-yl)-1H-pyrazol-4-yl)-N-((R)-2-((4-fluorophenyl)amino)-2-oxo-1-phenylethyl)pyrazine-2-carboxamide] |  |  | 28.68 | 29.31
5 | 1.7 | 30.48 | 18.31 | Nc1ncc(-c2cnn(C3CCN(CC4CCN(CC(=O)N5CCC(Nc6cccc7c6C(=O)N(C6CCC(=O)NC6=O)C7=O)CC5)CC4)CC3)c2)nc1C(=O)OC(C(=O)Nc1ccc(F)cc1)c1ccccc1 (stereo not drawn) [TDH-238, 2-((4-fluorophenyl)amino)-2-oxo-1-phenylethyl 3-amino-6-(1-(1-((1-(2-(4-((2-(2,6-dioxopiperidin-3-yl)-1,3-dioxoisoindolin-4-yl)amino)piperidin-1-yl)-2-oxoethyl)piperidin-4-yl)methyl)piperidin-4-yl)-1H-pyrazol-4-yl)pyrazine-2-carboxylate] |  |  | 43.63 | 31.99
